According to publication PMC9599461, “Stereoselectivity in the Membrane Transport of Phenylethylamine Derivatives by Human Monoamine Transporters and Organic Cation Transporters 1, 2, and 3” (Biomolecules, 2022):
Where “and” joins values, the source holds several entries; their conditions need not be identical. Equal entries are not always repeated.

How the values were obtained:
Alpha-1 adrenoreceptor = conditions: cited from earlier work
OCT2 A270S variant = assay: in vitro; conditions: human, Stereoselectivity OCT2_A270S, 100 μM racemic substance, two minutes; uptake ratio of enantiomers, given as for (R)
Experimental: (§1) All transport experiments were carried out in HEK293 cells stably overexpressing human MATs or OCTs. […] All cells were regularly cultivated in DMEM supplemented with 10% (v/v) FCS, penicillin (100 U/mL) and streptomycin (100 μg/mL)and kept in culture for no longer than 30 passages.
(§2) For the uptake experiments, 300,000 cells were plated in poly-D-lysine precoated 24-well plates 48 h ahead of the transport experiment. On the day of experiment, cells were initially washed once with 37 °C pre-warmed HBSS+ (Hanks buffered salt solution supplemented with 10 mM HEPES) and subsequently incubated with the substrates dissolved in pre-warmed HBSS+ for exactly two minutes. Incubation was stopped by adding ice-cold HBSS+ followed by two washing steps. After this, cells were lysed with 80% acetonitrile containing 10 ng/mL milnacipran as internal standard for high-performance liquid chromatography coupled to tandem mass spectrometry (HPLC-MS/MS) analysis. For every experiment, two additional wells per cell line were lysed using RIPA buffer for protein quantification. Total protein was quantified using the bicinchoninic acid assay [42]. This was later used for normalization of the uptake data.
(§3) Intracellularly accumulated test substances were quantified by HPLC-MS/MS analysis using a Shimadzu Nexera HPLC system with a SIL-30AC autosampler, a CTO-20AC column oven, a LC-30AD pump, and a CBM-20A controller (Shimadzu, Kyoto, Japan). Stereoselective chromatography was carried out on a [sequence] CBH HPLC column (100 × 3 mm inner dimension with 5 μM particle size; Sigma-Aldrich, Darmstadt, Germany) with a corresponding 10 × 3 mm guard column. Reversed phased chromatography was carried out using an ammonium acetate (NH4Ac) buffered aqueous mobile phase with isopropyl alcohol (IPA) as organic solvent. […] The order of elution of the enantiomers was obtained from available reference literature [43] or by applying enantiopure reference compounds to the chiral HPLC. […] However, in every other case where the order of elution was available, the (R)-enantiomer eluted first. Given the structural similarity of the investigated substances and the fact that separation was performed on the same column with almost identical mobile phases, we assume that this order of elution for our compound set is always the (R)- before the (S)-enantiomer.
(§4) Detection was performed with an API 4000 tandem mass spectrometer (AB SCIEX, Darmstadt, Germany) operating in multiple-reaction-monitoring mode. Quantification was performed using the Analyst 1.6.2 software (AB SCIEX, Darmstadt, Germany) and quantified by comparison to standard curves with known concentrations.
(§5) All uptake data were normalized to protein content to account for variation in the number of seeded sells. Transporter-mediated net uptake was calculated by subtracting uptake into empty vector-transfected control cells from uptake into transporter-transfected cells. Kinetic parameters were then determined after non-linear regression following the Michaelis–Menten equation (v = vmax × [S]/(Km + [S])) using GraphPad Prism (Version 5.01 for Windows, GraphPad Software, La Jolla, CA, USA). Vmax refers to the maximum transport velocity and Km is defined as the substance concentration required to reach half of vmax. The intrinsic clearance Clint was calculated as the quotient of vmax over Km.
(§6) HEK293 cells stably overexpressing wild-type or mutant OCT2 were incubated with 100 μM racemic substance for two minutes.

OCT2 [1] = target: T1, OCT2 (Homo sapiens, UniProt O15244, S270A); assay: Stereoselective uptake into OCT2 (wild-type)-overexpressing HEK293 cells; conditions: OCT2; ratio between enantiomers, given as for (R) or for 1
T1 sequence (O15244 1-555 S270A): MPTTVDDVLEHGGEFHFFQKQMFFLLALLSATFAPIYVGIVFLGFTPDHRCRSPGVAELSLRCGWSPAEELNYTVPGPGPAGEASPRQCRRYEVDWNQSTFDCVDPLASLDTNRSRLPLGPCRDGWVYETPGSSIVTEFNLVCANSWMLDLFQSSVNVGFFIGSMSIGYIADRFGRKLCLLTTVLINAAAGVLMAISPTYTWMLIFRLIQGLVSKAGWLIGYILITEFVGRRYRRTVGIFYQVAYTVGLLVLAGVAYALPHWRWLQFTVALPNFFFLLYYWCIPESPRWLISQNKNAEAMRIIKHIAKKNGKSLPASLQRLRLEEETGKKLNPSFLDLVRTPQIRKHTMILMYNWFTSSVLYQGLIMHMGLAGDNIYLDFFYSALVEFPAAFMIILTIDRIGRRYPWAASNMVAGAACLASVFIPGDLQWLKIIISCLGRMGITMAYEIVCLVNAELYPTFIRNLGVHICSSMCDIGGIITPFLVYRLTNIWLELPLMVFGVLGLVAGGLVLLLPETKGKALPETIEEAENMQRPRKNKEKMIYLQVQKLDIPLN

OCT2 (wild-type) = target: T2, OCT2 (wild-type) (Homo sapiens, UniProt O15244); assay: as above; conditions: human, Stereoselectivity OCT2_WT, 100 μM racemic substance, two minutes; uptake ratio of enantiomers, given as for (R)
T2 sequence (O15244 1-555 S270A): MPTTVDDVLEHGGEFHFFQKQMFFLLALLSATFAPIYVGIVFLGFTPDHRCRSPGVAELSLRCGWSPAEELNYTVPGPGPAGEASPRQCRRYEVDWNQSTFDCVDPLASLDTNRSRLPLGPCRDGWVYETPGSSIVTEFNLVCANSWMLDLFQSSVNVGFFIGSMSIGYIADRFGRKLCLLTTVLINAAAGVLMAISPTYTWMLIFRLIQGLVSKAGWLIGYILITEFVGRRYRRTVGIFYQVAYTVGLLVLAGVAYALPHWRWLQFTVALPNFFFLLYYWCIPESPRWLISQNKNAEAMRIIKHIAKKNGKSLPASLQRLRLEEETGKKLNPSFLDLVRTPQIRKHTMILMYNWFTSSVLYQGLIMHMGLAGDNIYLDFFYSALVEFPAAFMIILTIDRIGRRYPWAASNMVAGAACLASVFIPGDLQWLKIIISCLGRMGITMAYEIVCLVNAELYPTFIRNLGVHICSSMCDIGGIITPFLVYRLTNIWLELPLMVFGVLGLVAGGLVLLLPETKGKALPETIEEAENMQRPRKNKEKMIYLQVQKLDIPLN

SERT [2] = target: T3, SERT (Homo sapiens, UniProt P31645);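 note: uptake into HEK293 cells stably expressing human SERT over 2 min, enantiomers measured in cell lysate by chiral HPLC-MS/MS, normalized to total protein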
SERT [3] = target: T3, SERT; assay: in vitro
[4] = test system: OCT2 wild-type versus A270S variant; assay: in vitro; conditions: human, Transporter selectivity, OCT2 wild-type versus A270S, 100 μM racemic substance, two minutes; given as for WT
Experimental: as §1, §2, §3, §4, §5, §6

NET = NET (Homo sapiens, UniProt P23975); assay: Stereoselective uptake into NET-overexpressing HEK293 cells;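 note: intracellular enantiomers quantified in cell lysates by chiral HPLC-MS/MS after a 2 min substrate incubation, with uptake normalized to total cellular protein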
Experimental: as §1, §2
(§7) Intracellularly accumulated test substances were quantified by HPLC-MS/MS analysis using a Shimadzu Nexera HPLC system with a SIL-30AC autosampler, a CTO-20AC column oven, a LC-30AD pump, and a CBM-20A controller (Shimadzu, Kyoto, Japan). Stereoselective chromatography was carried out on a [sequence] CBH HPLC column (100 × 3 mm inner dimension with 5 μM particle size; Sigma-Aldrich, Darmstadt, Germany) with a corresponding 10 × 3 mm guard column. Reversed phased chromatography was carried out using an ammonium acetate (NH4Ac) buffered aqueous mobile phase with isopropyl alcohol (IPA) as organic solvent. […] The order of elution of the enantiomers was obtained from available reference literature [43] or by applying enantiopure reference compounds to the chiral HPLC. […] Given the structural similarity of the investigated substances and the fact that separation was performed on the same column with almost identical mobile phases, we assume that this order of elution for our compound set is always the (R)- before the (S)-enantiomer.
as §4, §5

DAT = DAT (Homo sapiens, UniProt Q01959); assay: Stereoselective uptake into DAT-overexpressing HEK293 cells;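 note: intracellular accumulation measured by chiral HPLC-MS/MS in stably transfected HEK293 cells, normalized to total protein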
SERT [5] = target: T3, SERT; assay: Stereoselective uptake into SERT-overexpressing HEK293 cells;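 note: uptake into HEK293 cells stably expressing human SERT over 2 min, enantiomers measured in cell lysate by chiral HPLC-MS/MS, normalized to total protein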
OCT1 = target: T4, OCT1 (Homo sapiens, UniProt O15245); assay: Stereoselective uptake into OCT1-overexpressing HEK293 cells; conditions: for selectivity ratio at 2 min: human;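 for all read-outs here: enantiomers quantified inside cells by chiral HPLC-MS/MS, uptake normalized to total protein from bicinchoninic acid assay, substrates applied in HBSS+ buffer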
T4 sequence (O15245 1-554): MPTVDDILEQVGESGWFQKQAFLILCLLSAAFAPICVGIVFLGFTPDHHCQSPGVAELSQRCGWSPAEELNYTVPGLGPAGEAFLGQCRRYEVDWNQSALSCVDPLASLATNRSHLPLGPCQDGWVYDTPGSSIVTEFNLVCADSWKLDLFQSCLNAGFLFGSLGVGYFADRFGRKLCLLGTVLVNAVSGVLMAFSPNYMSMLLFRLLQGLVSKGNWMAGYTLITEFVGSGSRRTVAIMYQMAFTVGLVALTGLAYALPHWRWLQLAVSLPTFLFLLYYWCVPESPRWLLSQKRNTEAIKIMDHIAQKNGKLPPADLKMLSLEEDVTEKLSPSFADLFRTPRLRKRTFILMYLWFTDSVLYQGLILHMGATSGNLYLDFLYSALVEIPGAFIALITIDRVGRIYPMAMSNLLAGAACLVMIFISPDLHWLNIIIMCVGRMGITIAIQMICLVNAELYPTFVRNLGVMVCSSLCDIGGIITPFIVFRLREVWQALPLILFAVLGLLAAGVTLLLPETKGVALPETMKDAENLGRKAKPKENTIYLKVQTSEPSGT

OCT3 = target: T5, OCT3 (Homo sapiens, UniProt O75751); assay: Stereoselective uptake into OCT3-overexpressing HEK293 cells;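 note: intracellular accumulation in HEK293 cells measured by chiral HPLC-MS/MS after a 2 min substrate exposure at 37 °C, uptake normalized to total protein (bicinchoninic acid assay)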
T5 sequence (O75751 1-556): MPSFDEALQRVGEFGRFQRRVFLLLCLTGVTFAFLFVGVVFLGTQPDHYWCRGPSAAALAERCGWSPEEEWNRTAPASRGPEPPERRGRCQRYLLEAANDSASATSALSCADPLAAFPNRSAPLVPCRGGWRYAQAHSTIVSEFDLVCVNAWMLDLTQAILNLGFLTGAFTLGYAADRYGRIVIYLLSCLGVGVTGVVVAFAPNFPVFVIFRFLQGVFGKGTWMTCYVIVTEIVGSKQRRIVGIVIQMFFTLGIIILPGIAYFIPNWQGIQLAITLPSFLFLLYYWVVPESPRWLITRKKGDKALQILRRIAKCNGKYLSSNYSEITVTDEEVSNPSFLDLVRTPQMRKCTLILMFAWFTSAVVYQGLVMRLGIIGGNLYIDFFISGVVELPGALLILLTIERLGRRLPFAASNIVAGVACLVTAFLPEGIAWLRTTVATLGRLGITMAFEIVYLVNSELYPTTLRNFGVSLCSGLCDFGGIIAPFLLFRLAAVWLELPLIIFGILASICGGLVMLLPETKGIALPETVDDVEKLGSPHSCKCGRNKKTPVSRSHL
Experimental: as §1, §2, §7, §4, §5

OCT2 [6] = target: T6, OCT2 (Homo sapiens, UniProt O15244); assay: Stereoselective uptake into OCT2 (wild-type)-overexpressing HEK293 cells; conditions: OCT2; for selectivity ratio at 2 min: human, ratio between enantiomers
T6 sequence (O15244 1-555 S270A): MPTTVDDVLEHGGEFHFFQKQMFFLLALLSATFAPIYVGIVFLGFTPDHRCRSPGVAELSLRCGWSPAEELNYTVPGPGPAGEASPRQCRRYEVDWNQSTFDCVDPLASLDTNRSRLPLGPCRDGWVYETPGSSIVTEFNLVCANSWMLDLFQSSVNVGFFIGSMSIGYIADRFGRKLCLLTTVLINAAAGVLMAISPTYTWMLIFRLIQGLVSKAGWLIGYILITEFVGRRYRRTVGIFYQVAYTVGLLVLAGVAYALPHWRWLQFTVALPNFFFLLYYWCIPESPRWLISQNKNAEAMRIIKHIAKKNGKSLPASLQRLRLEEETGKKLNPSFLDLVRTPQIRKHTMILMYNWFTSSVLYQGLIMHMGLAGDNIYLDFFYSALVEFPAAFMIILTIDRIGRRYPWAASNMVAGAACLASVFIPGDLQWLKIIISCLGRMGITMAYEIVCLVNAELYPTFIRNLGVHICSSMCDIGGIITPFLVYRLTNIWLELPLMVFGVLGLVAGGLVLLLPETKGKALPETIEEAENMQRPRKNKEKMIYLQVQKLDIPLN

[7] = substrate: CNC[C@@H](O)c1ccc(O)cc1; assay: cells, lysate or membranes; conditions: other: HEK293 cells overexpressing human DAT; racemic substrate, two minutes; net uptake minus empty vector control; 37.0 °C;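 note: intracellular accumulation measured by chiral HPLC-MS/MS in stably transfected HEK293 cells, normalized to total protein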
[8] = substrate: NCC(O)c1cccc(O)c1; assay: cells, lysate or membranes; conditions: other: HEK293 cells overexpressing human DAT; racemic substrate, two minutes; net uptake minus empty vector control; 37.0 °C;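 for Clint ± SEM: intracellular accumulation measured by chiral HPLC-MS/MS in stably transfected HEK293 cells, normalized to total protein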
[9] = substrate: NC[C@@H](O)c1ccc(O)cc1; assay: cells, lysate or membranes; conditions: other: HEK293 cells overexpressing human DAT; racemic substrate, two minutes; net uptake minus empty vector control; 37.0 °C;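 note: intracellular accumulation measured by chiral HPLC-MS/MS in stably transfected HEK293 cells, normalized to total protein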
[10] = substrate: NC[C@H](O)c1ccc(O)cc1; assay: cells, lysate or membranes; conditions: other: HEK293 cells overexpressing human DAT; racemic substrate, two minutes; net uptake minus empty vector control; 37.0 °C
[11] = substrate: [H][C@](O)(CNC)c1ccc(O)cc1; assay: cells, lysate or membranes; conditions: other: HEK293 cells overexpressing human DAT; racemic substrate, two minutes; net uptake minus empty vector control; 37.0 °C

T3 sequence (P31645 whole entry): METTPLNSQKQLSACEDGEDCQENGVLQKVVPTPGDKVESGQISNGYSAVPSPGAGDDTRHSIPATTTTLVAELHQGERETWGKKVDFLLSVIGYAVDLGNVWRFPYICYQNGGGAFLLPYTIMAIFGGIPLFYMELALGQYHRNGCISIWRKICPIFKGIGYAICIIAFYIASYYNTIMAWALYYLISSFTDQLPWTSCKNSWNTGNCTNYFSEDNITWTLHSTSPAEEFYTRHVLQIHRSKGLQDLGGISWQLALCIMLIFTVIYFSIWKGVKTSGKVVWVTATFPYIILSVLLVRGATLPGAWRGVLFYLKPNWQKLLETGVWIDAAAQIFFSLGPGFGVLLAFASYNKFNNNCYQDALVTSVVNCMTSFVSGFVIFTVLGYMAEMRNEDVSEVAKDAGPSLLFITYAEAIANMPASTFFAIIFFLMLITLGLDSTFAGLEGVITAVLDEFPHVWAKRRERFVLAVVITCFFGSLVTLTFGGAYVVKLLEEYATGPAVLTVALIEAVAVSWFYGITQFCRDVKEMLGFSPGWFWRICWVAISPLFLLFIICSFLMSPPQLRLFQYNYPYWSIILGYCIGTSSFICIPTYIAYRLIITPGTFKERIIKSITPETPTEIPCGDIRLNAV
Chain of NET (P23975 whole entry): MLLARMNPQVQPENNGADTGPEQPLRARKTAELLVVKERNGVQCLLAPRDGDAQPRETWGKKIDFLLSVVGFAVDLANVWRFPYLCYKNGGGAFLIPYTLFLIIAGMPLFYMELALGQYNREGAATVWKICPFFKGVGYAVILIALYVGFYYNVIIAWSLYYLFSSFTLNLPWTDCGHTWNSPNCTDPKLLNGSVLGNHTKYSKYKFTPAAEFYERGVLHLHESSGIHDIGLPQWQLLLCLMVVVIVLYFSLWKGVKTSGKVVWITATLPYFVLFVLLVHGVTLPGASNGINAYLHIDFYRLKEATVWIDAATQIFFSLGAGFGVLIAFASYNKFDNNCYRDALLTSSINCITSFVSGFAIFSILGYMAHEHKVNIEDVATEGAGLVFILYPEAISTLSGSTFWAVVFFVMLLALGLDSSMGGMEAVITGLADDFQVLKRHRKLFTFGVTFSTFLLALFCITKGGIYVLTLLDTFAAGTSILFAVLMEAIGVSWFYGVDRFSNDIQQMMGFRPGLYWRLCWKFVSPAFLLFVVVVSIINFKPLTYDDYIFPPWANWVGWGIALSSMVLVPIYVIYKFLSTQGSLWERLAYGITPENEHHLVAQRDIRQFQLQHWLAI

NC[C@H](O)c1ccc(O)c(O)c1 [Norepinephrine]
Enantiomeric Activity Ratio (R/S) in Receptor Binding Alpha-1 (Alpha-1 adrenoreceptor): 33 | selectivity ratio at 2 min, 100 μM (OCT2 A270S variant): 2.06 | Stereoselectivity Vmax (OCT2 [1]): approximately two-fold | selectivity ratio at 2 min, 100 μM (OCT2 (wild-type)): 2.05

CNCC(O)c1ccc(O)cc1 (centres unmarked) [Synephrine]
Enantiomeric Activity Ratio (R/S) in Receptor Binding Alpha-1 (Alpha-1 adrenoreceptor): 75 | selectivity ratio at 2 min, 100 μM (OCT2 A270S variant): 1 | selectivity ratio at 2 min, 100 μM (OCT2 (wild-type)): 1.17

CNC[C@@H](O)c1cccc(O)c1 [(S)-Phenylephrine]
Clint ± SEM (SERT [2]): 11.6 | selectivity ratio (SERT [3]): 2.82 | selectivity ratio at 2 min, 100 μM [4]: 1.13 | Vmax ± SEM (NET; HEK293 cells overexpressing human NET, racemic substrate, two minutes, net uptake): 220 pmol × mg Protein^−1 × min^−1 | Clint ± SEM (NET; NET, quotient of vmax over Km): 52.3 mL × g Protein^−1 × min^−1 | Stereoselectivity Vmax (NET; NET, ratio between enantiomers, given as for (R) or for 1): 1.79 fold | selectivity ratio at 2 min (NET; human): 1.43 | Km (NET; read-out: Km ± SEM, HEK293 cells overexpressing human NET, racemic substrate, two minutes, net uptake minus empty vector control): 4.16 µM | Clint ± SEM (DAT; DAT, quotient of vmax over Km): 11.6 mL × g Protein^−1 × min^−1 | Stereoselectivity Vmax (DAT; DAT, ratio between enantiomers, given as for (R) or for 1): 1.56 fold | Stereoselectivity Km (DAT; DAT, ratio between enantiomers, given as for (R) or for 1 (first-eluting)): 1.06 fold | Vmax ± SEM (DAT; HEK293 cells overexpressing human DAT, racemic substrate, two minutes, net uptake): 392 pmol × mg Protein^−1 × min^−1 | selectivity ratio at 2 min (DAT; human): 1.48 | Km (DAT; read-out: Km ± SEM, HEK293 cells overexpressing human DAT, racemic substrate, two minutes, net uptake minus empty vector control): 33.7 µM | Stereoselectivity Km (SERT [5]): 1.89 fold | Stereoselectivity Vmax (SERT [5]): 1.49 fold | Vmax ± SEM (SERT [5]): 529 | Km (SERT [5]; read-out: Km ± SEM, HEK293 cells overexpressing human SERT, racemic substrate, two minutes, net uptake minus empty vector control): 173 µM | Clint ± SEM (OCT1; OCT1, quotient of vmax over Km): 8.85 mL × g Protein^−1 × min^−1 | selectivity ratio at 2 min (OCT1; Stereoselectivity ClInt): 1.11 | selectivity ratio at 2 min (OCT1; Stereoselectivity Km, OCT1, ratio between enantiomers, given as for (S) or for 2 (second-eluting)): 1.02 | selectivity ratio at 2 min (OCT1; Stereoselectivity Vmax, OCT1, ratio between enantiomers, given as for (R) or for 1): 1.08 | Clint ± SEM (OCT3; OCT3, quotient of vmax over Km): 4.23 mL × g Protein^−1 × min^−1 | Stereoselectivity Vmax (OCT3; OCT3, ratio between enantiomers, given as for (R) or for 1): 3.33 fold | Stereoselectivity Km (OCT3; OCT3, ratio between enantiomers, given as for (R) or for 1 (first-eluting)): 1.19 fold | selectivity ratio at 2 min (OCT3; human): 2.79 | Clint ± SEM (OCT2 [6]; quotient of vmax over Km): 27.3 mL × g Protein^−1 × min^−1 | selectivity ratio at 2 min (OCT2 [6]; Stereoselectivity ClInt, given as for (S) or for 2): 1.02 | selectivity ratio at 2 min (OCT2 [6]; Stereoselectivity Km, given as for (R) or for 1 (first-eluting)): 1.89 | selectivity ratio at 2 min (OCT2 [6]; Stereoselectivity Vmax, given as for (R) or for 1): 2.04

B1: DAT (Homo sapiens) (protein)
chain: MSKSKCSVGLMSSVVAPAKEPNAVGPKEVELILVKEQNGVQLTSSTLTNPRQSPVEAQDRETWGKKIDFLLSVIGFAVDLANVWRFPYLCYKNGGGAFLVPYLLFMVIAGMPLFYMELALGQFNREGAAGVWKICPILKGVGFTVILISLYVGFFYNVIIAWALHYLFSSFTTELPWIHCNNSWNSPNCSDAHPGDSSGDSSGLNDTFGTTPAAEYFERGVLHLHQSHGIDDLGPPRWQLTACLVLVIVLLYFSLWKGVKTSGKVVWITATMPYVVLTALLLRGVTLPGAIDGIRAYLSVDFYRLCEASVWIDAATQVCFSLGVGFGVLIAFSSYNKFTNNCYRDAIVTTSINSLTSFSSGFVVFSFLGYMAQKHSVPIGDVAKDGPGLIFIIYPEAIATLPLSSAWAVVFFIMLLTLGIDSAMGGMESVITGLIDEFQLLHRHRELFTLFIVLATFLLSLFCVTNGGIYVFTLLDHFAAGTSILFGVLIEAIGVAWFYGVGQFSDDIQQMTGQRPSLYWRLCWKLVSPCFLLFVVVVSIVTFRPPHYGAYIFPDWANALGWVIATSSMAMVPIYAAYKFCSLPGSFREKLAYAIAPEKDRELVDRGEVRQFTLRHWLKV
Km [7]: 44.7 µM | Vmax [7]: 463 pmol × mg Protein^−1 × min^−1 | Km [8]: 15.6 µM and 18.6 µM | Vmax [8]: 2003 pmol × mg Protein^−1 × min^−1 and 3103 pmol × mg Protein^−1 × min^−1 | Km [9]: 19.6 µM | Vmax [9]: 1959 pmol × mg Protein^−1 × min^−1 | Km [10]: 20.5 µM | Vmax [10]: 2054 pmol × mg Protein^−1 × min^−1 | Km [11]: 36.8 µM | Vmax [11]: 849 pmol × mg Protein^−1 × min^−1
